Reference: the Kinase Knowledgebase extract (Sharma et al. 2016)

Biological target: MAPK14 (human) (UniProt Q16539)
Assay: Inhibition of MAPK14 Kinase Assay

Chain of MAPK14 (human) (Q16539 whole entry, looked up): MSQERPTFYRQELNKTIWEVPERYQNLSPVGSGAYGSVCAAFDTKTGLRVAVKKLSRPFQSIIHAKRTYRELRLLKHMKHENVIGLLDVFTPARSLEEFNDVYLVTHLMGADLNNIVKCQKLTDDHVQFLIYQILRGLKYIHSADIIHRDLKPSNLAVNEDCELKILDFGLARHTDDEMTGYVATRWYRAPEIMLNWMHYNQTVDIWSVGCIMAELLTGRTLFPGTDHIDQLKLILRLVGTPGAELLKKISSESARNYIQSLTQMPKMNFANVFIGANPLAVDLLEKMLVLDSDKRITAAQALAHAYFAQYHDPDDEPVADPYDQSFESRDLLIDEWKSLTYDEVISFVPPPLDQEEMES

| Structure (SMILES) | IC50 |
| --- | --- |
| CSc1nc(-c2ccc(F)cc2)c(-c2ccncc2)n1NC(=O)c1ccc(C)c(F)c1 | 242 nM |
| CSc1nc(-c2ccc(F)cc2)c(-c2ccncc2)n1N | 1880 nM |
| Cn1nc(-c2ccc(F)cc2)c(-c2ccncc2)c1NC(=O)Cc1ccccc1Cl | 71 nM |
| CSc1nc(-c2ccc(F)cc2)c(-c2ccncc2)n1NC(=O)Nc1ccc(F)cc1 | 145 nM |
| CSc1nc(-c2ccc(F)cc2)c(-c2ccncc2)n1NC(C)=O | 840 nM |
| Cn1nc(-c2ccc(F)cc2)c(-c2ccncc2)c1NC(=O)Cc1ccc(F)cc1 | 29 nM |
| O=C(Cc1ccc(F)cc1)Nc1onc(-c2ccc(F)cc2)c1-c1ccncc1 | 113 nM |
| CSc1nc(-c2ccc(F)cc2)c(-c2ccncc2)n1NC(=O)c1ccco1 | 308 nM |
| CSc1nc(-c2ccc(F)cc2)c(-c2ccncc2)n1NC(=O)Cc1ccc(F)cc1 | 244 nM |
| CC(C(=O)Nc1onc(-c2ccc(F)cc2)c1-c1ccncc1)c1ccccc1 (stereo not given) | 107 nM |

Other lines, results leading:

| IC50 | Structure (SMILES) |
| --- | --- |
| 95 nM | CSc1nc(-c2ccc(F)cc2)c(-c2ccncc2)n1NC(=O)C(C)c1ccccc1 (stereo not given) |
| 314 nM | CSc1nc(-c2ccc(F)cc2)c(-c2ccncc2)n1NC(=O)c1ccccc1 |
| 873 nM | CSc1nc(-c2ccc(F)cc2)c(-c2ccncc2)n1NC(=O)c1cc2ccccc2o1 |
| 58 nM | CSc1nc(-c2ccc(F)cc2)c(-c2ccncc2)n1NC(=O)Cc1ccccc1Cl |
| 1080 nM | CSc1nc(-c2ccc(F)cc2)c(-c2ccncc2)n1NC(=O)COc1ccccc1 |
